In PMC11601558, “SLC6A19 inhibition facilitates urinary neutral amino acid excretion and lowers plasma phenylalanine” (JCI Insight, 2024):
Several values for one entry are separate records, joined by “and”; a condition that tells them apart may be missing. Equal entries are not always repeated.

Legend:
[1] = test system: T1, SLC7A5 co-expressed with SLC3A2; test: SLC7A5 isoleucine transport assay; assay type: cell-based, human; conditions: for SLC7A5 transport (Fig S2 curve point): technical replicates
T1 construct: V5; expressed in transfected cells; host or cells: Flp-In T-Rex 293 cells (Thermo Fisher), SLC7A5 tetracycline-induced
Description: Supplementary Materials and Methods
Flp-In T-Rex 293 cells (Thermo Fisher) were engineered to induciblyexpress either V5-tagged human SLC1A5, SLC6A8 or SLC7A5 co-expressed with myc-DDK-tagged SLC3A2. Cells expressing SLC 1A5 or SLC6A8 were maintained in either DMEM or DMEM/F12 media supplemented with 10% FBS, 100 U/mL penicillin, 100 μg/mL streptomycin, 200 μg/mL hygromycin, and 10 μg/mL blasticidin. For cells expressing SLC7A5/SLC3A2, the media was additionally supplemented with 300 μg/mL geneticin. All cell lines were maintained at 37°C and 5% CO2. For transport experiments, all cell lines were plated in poly-D-lysine-coated 96-well plates at a density of 35,000 cells/well. One day after plating, expression of SLC1A5, SLC6A8 or SLC7A5 was induced by adding tetracycline at a concentration of 1 μg/mL. Cells were induced for 24 h prior to transport assays. […]
SLC7A5 isoleucine transport assay
Following a 24 h induction with tetracycline, cells were washed with sodium -free LCIS (20 mM HEPES, 140 mM choline chloride, 2.5 mM KCl, 1.8 mM CaCl2, 1 mM MgCl2, pH 7.4) before JNT-517 was added in 8-point concentration-response diluted in sodium-free LCIS. JPH203 (Selleckchem) was used as a positive control (34)at a concentration of 1.3 μM and DMSO was used as a negative control. Cells were incubated for 30 min at room temperature before a mixture of unlabeled L-isoleucine (Millipore Sigma) and 10 μCi/mL 4,5 -3H(N)-labeled L-isoleucine (American Radiolabeled Chemicals) was added at a concentration of 50 μM. After a 2 min incubation at room temperature, cells were washed once with sodium -free LCIS and lysed in scintillation fluid (PerkinElmer). The uptake of radioactive substrate was measured on a Microbeta2 microplate counter (PerkinElmer). […]

healthy volunteers = test: Plasma amino acid levels in healthy volunteers (MAD); assay type: in vivo, human
Description: The effect of JNT-517 on plasma and urine AA levels was measured using an ultra-performance liquid chromatography mass spectrometry assay following 6-aminoquinolyl-N-hydroxysuccinimidyl carbamate (AQC) derivatization. For the SAD study, plasma samples were collected on day –1 and day 1 predose, as well as 24, 48, and 72 hours after dosing. A first morning void urine sample on Days –1 and 1 predose, as well as 2 pooled urine samples 0–8 hours after and 8–24 hours after dose were also collected following study drug administration. For the MAD study, plasma samples were collected on day –1, 1, 7, and 14 predose, as well as day 14, 24 hours after dosing. A first morning void urine samples on day –1, 1, 7, and 14 as well as 2 pooled urine samples 0–8 hours and 8–24 hours after dose on days 1, 7, and 14 were also collected following JNT-517 or placebo administration. Study participants in SAD and MAD cohorts were dosed in the morning following an overnight fast of at least 8 hours and were provided the following meals in relation to dosing times: breakfast after the morning dose, lunch 4 hours after morning dose, optional snack in the afternoon 8 hours after the morning dose and after the second dose for MAD cohorts dosed BID, dinner approximately 10 hours after the morning dose and at least 2 hours after the second dose for MAD cohorts dosed BID. Predose plasma amino acids were drawn after a minimum of 8 hours fasting overnight and after-dose levels were drawn after > 1.5 hours fasting. Resulting plasma and urine amino acid concentration measurements, as well a total amino acid excretion over a time period were summarized using appropriate descriptive statistics and compared with either predose levels or placebo-dose values. Tryptophan was not included in the amino acid panel due to analytical limitations.

## NC(=O)N1CCC[C@@H](N(C(=O)NCc2ccc(OC(F)(F)F)cc2F)C2CC2)C1 [JNT-517]
[1]; 0.0160037 uM
  SLC7A5 transport (Fig S2 curve point): 105 and 96.7
[1]; 0.048011 uM
  SLC7A5 transport (Fig S2 curve point): 106 and 104
[1]; 0.144033 uM
  SLC7A5 transport (Fig S2 curve point): 99.2 and 100
[1]; 0.432099 uM
  SLC7A5 transport (Fig S2 curve point): 95.2 and 94.5
[1]; 1.2963 uM
  SLC7A5 transport (Fig S2 curve point): 99.2 and 103
[1]; 3.88889 uM
  SLC7A5 transport (Fig S2 curve point): 101 and 96.2
[1]; 11.6667 uM
  SLC7A5 transport (Fig S2 curve point): 108 and 105
[1]; 35 uM
  SLC7A5 transport (Fig S2 curve point): 133 and 120
[1]; concentrations up to 35 μM
  inhibition of SLC7A5: did not inhibit
Healthy volunteers; MAD 25 mg BID, Post-dose
  number of subjects with plasma Alanine below lower limit of normal: 0
  number of subjects with plasma Arginine below lower limit of normal: 0
  number of subjects with plasma Asparagine below lower limit of normal: 0
  number of subjects with plasma Cystine below lower limit of normal: 5
  number of subjects with plasma Glutamate below lower limit of normal: 0
  number of subjects with plasma Glutamine below lower limit of normal: 0
  number of subjects with plasma Glycine below lower limit of normal: 0
  number of subjects with plasma Isoleucine below lower limit of normal: 0
  number of subjects with plasma Leucine below lower limit of normal: 0
  number of subjects with plasma Lysine below lower limit of normal: 0
  number of subjects with plasma Methionine below lower limit of normal: 0
  number of subjects with plasma Phenylalanine below lower limit of normal: 0
  number of subjects with plasma Proline below lower limit of normal: 0
  number of subjects with plasma Serine below lower limit of normal: 0
  number of subjects with plasma Threonine below lower limit of normal: 0
  number of subjects with plasma Tyrosine below lower limit of normal: 0
  number of subjects with plasma Valine below lower limit of normal: 0
Healthy volunteers; MAD 75 mg BID, Post-dose
  number of subjects with plasma Alanine below lower limit of normal: 0
  number of subjects with plasma Arginine below lower limit of normal: 0
  number of subjects with plasma Asparagine below lower limit of normal: 0
  number of subjects with plasma Cystine below lower limit of normal: 0
  number of subjects with plasma Glutamate below lower limit of normal: 0
  number of subjects with plasma Glutamine below lower limit of normal: 0
  number of subjects with plasma Glycine below lower limit of normal: 0
  number of subjects with plasma Isoleucine below lower limit of normal: 0
  number of subjects with plasma Leucine below lower limit of normal: 0
  number of subjects with plasma Lysine below lower limit of normal: 0
  number of subjects with plasma Methionine below lower limit of normal: 0
  number of subjects with plasma Phenylalanine below lower limit of normal: 0
  number of subjects with plasma Proline below lower limit of normal: 0
  number of subjects with plasma Serine below lower limit of normal: 0
  number of subjects with plasma Threonine below lower limit of normal: 0
  number of subjects with plasma Tyrosine below lower limit of normal: 0
  number of subjects with plasma Valine below lower limit of normal: 0
Healthy volunteers; MAD 150 mg QD, Post-dose
  number of subjects with plasma Alanine below lower limit of normal: 0
  number of subjects with plasma Arginine below lower limit of normal: 0
  number of subjects with plasma Asparagine below lower limit of normal: 0
  number of subjects with plasma Cystine below lower limit of normal: 5
  number of subjects with plasma Glutamate below lower limit of normal: 0
  number of subjects with plasma Glutamine below lower limit of normal: 0
  number of subjects with plasma Glycine below lower limit of normal: 0
  number of subjects with plasma Isoleucine below lower limit of normal: 0
  number of subjects with plasma Leucine below lower limit of normal: 0
  number of subjects with plasma Lysine below lower limit of normal: 0
  number of subjects with plasma Methionine below lower limit of normal: 0
  number of subjects with plasma Phenylalanine below lower limit of normal: 0
  number of subjects with plasma Proline below lower limit of normal: 0
  number of subjects with plasma Threonine below lower limit of normal: 0
  number of subjects with plasma Valine below lower limit of normal: 0
Healthy volunteers; MAD 150 mg QD, Post-dose (16.7%)
  number of subjects with plasma Serine below lower limit of normal: 1
Healthy volunteers; MAD 150 mg QD, Post-dose (33.3%)
  number of subjects with plasma Tyrosine below lower limit of normal: 2
